Data from patent US20160310510A1, “MEDICINAL COSMETIC LIPOATROPHY” (priority 2009, published 2016).
Entries after “also recorded” stand apart in the source; their conditions may differ.

What was measured:
[1] = test system: SQ adipose tissue of the face; assay: Facial MRI before and after triamcinolone injections, thickness of SQ adipose tissue; assay type: in vivo, human
Experimental: (§1) A series of cases of small localized fat deposits on the face were treated with local triancinolone from March 2005 to October 2008 at a private clinic in Porto Alegre, southern of Brazil. […] They received injections of triamcinolone (Kenalog®-40 Injection) diluted in anesthetic solution (0.02 g/mL Lidocaine plus 0.0004 g/mL Phenilephrine—Novocol®), in different doses and number of applications (up to 3 injections, once a month), according to patient's needs. […] Patients received injections in these fatty areas of the face, through a 0.3 cc BD Ultra Fine II syringe with short needle of minimum 7 or 8 mm long.
One patient was submitted to a facial Magnetic Resonance Imaging (MRI) exam before and after the triamcinolone injections, in order to show the results in terms of the changes in the thickness of subcutaneous tissue. Magnetic resonance imaging examination was performed with 1.5 Tesla Closed Bore Scanner (Magnetom Symphony Maestro Class, Siemens, Erlangen, Germany) with dedicated flexible coils. T1-weighted (600 ms/14 ms, Time Repetition/Time Echo) and T2-weighted (2500 ms/45 ms, TR/TE) turbo spin echo sequences were performed in coronal, axial and sagittal planes, with emphasis on the sagittal plane. An experienced radiologist evaluated the MRI images. The thickness of SQ adipose tissue was measured with Syngo software (Siemens, Erlangen, Germany) in millimetres (mm).

[2] = cited from earlier work
adipocytes = assay: Punch biopsies before and after single treatment, HE histology and morphometry of adipocytes; assay type: in vivo, human
Experimental: as §1
Another patient was submitted to 3 mm punch biopsies (one on the submental area and another on suprapubical area) before and after single treatment. Histological specimens of SQ tissue were stained with hematoxylin and eosin (HE stain) and […] was also performed in the histological images of before and after treatment samples.

[3] = test system: small localized fat deposits on the face; assay: Retrospective series of 56 patients treated with local triamcinolone injections: clinical evaluation, satisfaction, side effects

CC1(C)O[C@@H]2C[C@H]3[C@@H]4CCC5=CC(=O)C=C[C@]5(C)[C@@]4(F)[C@@H](O)C[C@]3(C)[C@]2(C(=O)CO)O1 [triamcinolone, Triamcinolone acetonide]
reduction of the thickness of the study area of facial fat (MRI) ([1]; after single session of injections, FIGS. 3 and 4): 27.3%
thickness of the study area of facial fat after treatment (MRI) ([1]; after single session, before treatment 1.1 cm): 0.8 cm
reduction of the fat thickness showed by MRI ([1]; mandibular area): 37.5%
fat thickness after treatment (MRI) ([1]; mandibular area, before treatment 0.8 cm): 0.5 cm
reduction of the fat thickness showed by MRI ([1]; submental area): 33.3%
fat thickness after treatment (MRI) ([1]; submental area, before treatment 0.6 cm): 0.4 cm
concentration with greater risk of cutaneous atrophy ([2]; intralesional injections, Pariser and Murray 1963): above 5 mg/cm^3
safe dose ([2]; local injections): less than 0.15 mg/kg
reduction in the volume of adipocytes in the sites of the injections (histological analysis) (adipocytes; before and after single treatment biopsies): about 30%
average number of adipocytes observed in the optical field at the same magnification (adipocytes; suprapubical area biopsy, one month after a single injection, before treatment 4): 7 adipocytes per field
average diameter of the adipocytes (adipocytes; suprapubical area biopsy, one month after a single injection, before treatment 190): 153 pixels
average area of the adipocytes (adipocytes; suprapubical area biopsy, one month after a single injection, before treatment 31661): 21705 pixels
subject satisfaction with the results of the procedure ([3]; 29 subjects (51.78%) who returned for evaluation): very satisfied
physician evaluation of clinical and cosmetic improvement ([3]; 29 subjects who returned for evaluation): good clinical and cosmetic improvement of facial contour
serious / severe adverse events ([3]; Kenalog-40 diluted in lidocaine plus phenilephrine, up to 3 monthly subcutaneous injection sessions): No severe local or systemic side effects were observed; also recorded: did not presented serious adverse events
local side effects observed ([3]; during and after the injections): pain and slight erythema; also recorded: hematomas in variable number and size
number of patients with cosmetic local side effects ([3]; of the treated series): three
